pIC50: −log10 of the molar value. Several values for one entry are separate records, joined by “and”; a condition that tells them apart may be missing. Identical values can stand only once. Counter-ions that a name gives are not always drawn. Like-named read-outs stand apart in the source and are kept apart here.
Experiments:
E. coli DNA gyrase = target: T1, E. coli DNA gyrase (Escherichia coli, UniProt P0AES4); assay: E. coli DNA gyrase supercoiling gel assay; assay type: biochemical
T1 construct: purchased Inspiralis (Norwich, UK)
Method: (§1) S. aureus and E. coli DNA gyrase supercoiling and topo IV decatenation assay kits, as well as human topoisomerase II decatenation assay kits, were provided by Inspiralis (Norwich, UK). Assays were performed according to the manufacturer’s instructions. The compounds were serially diluted (1:3 dilutions starting from a 300 μM final concentration) and assayed in a reaction mixture to obtain concentration-response curves in two different replicate experiments. The final concentration of DMSO in the assays was 1% (v/v). The reactions were terminated by the addition of 30 μl chloroform/isoamyl alcohol (26:1) and 30 μl Stop Dye (40% sucrose, 100 mM Tris HCl pH 7.5, 1 mM EDTA, 0.5 μg/ml bromophenol blue), after which the samples were loaded onto a 1.0% TAE ([…]) gel that was then run at 80 V for 2 hours. DNA bands were visualized by ethidium bromide staining the gel for 10 minutes, which was then destained for 10 minutes in water and analysed using gel documentation equipment (Syngene, Cambridge, UK). The DNA in each band was quantitated using Syngene Gene Tools software. Raw gel data (fluorescent band volumes) were converted by the software to percentages of the control (the fully supercoiled or decatenated DNA band). […] The global curve fit non-linear regression tool was used to calculate the IC50 values. The results are expressed as the average values obtained after calculating the IC50 from each replicate run.

[1] = system: N. gonorrhoeae clinical isolates (n = 38); assay: microbe, parasite or virus in culture; assay type: cell-based, Neisseria gonorrhoeae; conditions: for MIC50 / MIC90: Neisseria gonorrhoeae
Method: (§2) The bacterial reference strains used in this study were purchased from ATCC (American Type Culture Collection) via LGC Standards (Middlesex, UK). […] Clinical MDR isolates were provided by Aptuit, the IHMA Europa Sàrl repository (Epalinges, Switzerland) and the Statens Serum Institute (Copenhagen, Denmark).
(§3) MICs were determined by the broth microdilution method (the agar dilution method was used only for N. gonorrhoeae) according to CLSI guidelines.
(§4) The results obtained using clinical isolates are reported as MIC50 and MIC90 values.

S. aureus ATCC 29213 = assay: MIC, broth microdilution; assay type: cell-based, Staphylococcus aureus; conditions: for MIC: Staphylococcus aureus, ATCC29213, S. aureus ATCC 29213, ciprofloxacin-susceptible
Method: as §3

[2] = system: E. faecalis clinical isolates (n = 12) vanA (6)/vanB (6); assay: MIC, multidrug-resistant clinical isolates; assay type: cell-based; conditions: Enterococcus faecalis; for MIC: read-out: MIC range
Method: as §2, §3, §4

[3] = system: E. faecium clinical isolates (n = 12) vanA (6)/vanB (6); assay: MIC, multidrug-resistant clinical isolates; assay type: cell-based; conditions: Enterococcus faecium; for MIC: read-out: MIC range
Method: as §2, §3, §4

N. gonorrhoeae WHO K = assay: MIC, agar dilution; assay type: cell-based; conditions: Neisseria gonorrhoeae, ciprofloxacin-resistant
Method: as §3

N. gonorrhoeae WHO N = assay: MIC, agar dilution; assay type: cell-based; conditions: Neisseria gonorrhoeae, ciprofloxacin-resistant
Method: as §3

[4] = system: N. gonorrhoeae ATCC 19424; assay: MIC, agar dilution; assay type: cell-based; conditions: Neisseria gonorrhoeae, ATCC19424; N. gonorrhoeae ATCC 19424, ciprofloxacin-susceptible
Method: as §3

N. gonorrhoeae WHO L = assay: MIC, agar dilution; assay type: cell-based; conditions: Neisseria gonorrhoeae, ciprofloxacin-resistant
Method: as §3

[5] = system: N. gonorrhoeae ATCC 49226; assay: MIC, agar dilution; assay type: cell-based; conditions: Neisseria gonorrhoeae, ATCC49226; N. gonorrhoeae ATCC 49226, ciprofloxacin-susceptible
Method: as §3

[6] = target: T2, S. aureus Topoisomerase IV (Staphylococcus aureus, UniProt P0C1U9); assay: S. aureus topoisomerase IV decatenation gel assay; assay type: biochemical
T2 construct: purchased Inspiralis (Norwich, UK)
Method: as §1

[7] = system: K. pneumoniae ATCC 700603; assay: MIC, broth microdilution; assay type: cell-based; conditions: Klebsiella pneumoniae, ATCC700603; K. pneumoniae ATCC 700603, ciprofloxacin-susceptible
Method: as §3

S. pneumoniae ATCC 49619 = assay: MIC, broth microdilution; assay type: cell-based; conditions: Streptococcus pneumoniae, ATCC49619; S. pneumoniae ATCC 49619, ciprofloxacin-susceptible
Method: as §3

P. aeruginosa ATCC 27853 = assay: MIC, broth microdilution; assay type: cell-based; conditions: Pseudomonas aeruginosa, ATCC27853; P. aeruginosa ATCC 27853, ciprofloxacin-susceptible
Method: as §3

H. influenzae ATCC 49766 = assay: MIC, broth microdilution; assay type: cell-based; conditions: Haemophilus influenzae, ATCC49766; H. influenzae ATCC 49766, ciprofloxacin-susceptible
Method: as §3

E. faecalis ATCC 29212 = assay: MIC, broth microdilution; assay type: cell-based; conditions: Enterococcus faecalis, ATCC29212; E. faecalis ATCC 29212, ciprofloxacin-susceptible
Method: as §3

S. aureus BAA-1720 = assay: MIC, broth microdilution; assay type: cell-based; conditions: Staphylococcus aureus, BAA1720; S. aureus BAA-1720, ciprofloxacin-resistant
Method: as §3

E. coli ATCC 25922 = assay: MIC, broth microdilution; assay type: cell-based; conditions: Escherichia coli, ATCC25922; E. coli ATCC 25922, ciprofloxacin-susceptible
Method: as §3

E. coli TolC- mutant = assay: microbe, parasite or virus in culture; assay type: cell-based; conditions: Escherichia coli
Method: as §2, §3

[8] = system: H. influenzae AcrA- mutant; assay: microbe, parasite or virus in culture; assay type: cell-based; conditions: Haemophilus influenzae
Method: as §2, §3

Human Topoisomerase II = target: T3, Human Topoisomerase II (Homo sapiens, UniProt P11388); assay: Human topoisomerase II decatenation gel assay; assay type: biochemical
T3 construct: purchased Inspiralis (Norwich, UK)
Method: as §1

S. aureus DNA gyrase = target: T4, S. aureus DNA gyrase (Staphylococcus aureus, UniProt P20831); assay: S. aureus DNA gyrase supercoiling gel assay; assay type: biochemical
T4 construct: purchased Inspiralis (Norwich, UK)
Method: as §1

E. coli Topoisomerase IV = target: T5, E. coli Topoisomerase IV (Escherichia coli, UniProt P0AFI2); assay: E. coli topoisomerase IV decatenation gel assay; assay type: biochemical
T5 construct: purchased Inspiralis (Norwich, UK)
Method: as §1

[9] = replicate Assay 1, read-out: IC50 S. aureus Topoisomerase IV decatenation, Assay 1
[10] = replicate Assay 2, read-out: IC50 S. aureus Topoisomerase IV decatenation, Assay 2
[11] = average of two replicate experiments, read-out: IC50 Human Topoisomerase II decatenation (average)
[12] = replicate Assay 1, read-out: IC50 Human Topoisomerase II (TopoII) decatenation, Assay 1
[13] = replicate Assay 2, read-out: IC50 Human Topoisomerase II (TopoII) decatenation, Assay 2
[14] = average of two replicate experiments, read-out: IC50 S. aureus Gyrase Supercoiling (average)
[15] = replicate Assay 1, read-out: IC50 S.aureus gyrase Supercoiling, Assay 1
[16] = replicate Assay 2, read-out: IC50 S.aureus gyrase Supercoiling, Assay 2

T5 sequence (P20083 whole entry): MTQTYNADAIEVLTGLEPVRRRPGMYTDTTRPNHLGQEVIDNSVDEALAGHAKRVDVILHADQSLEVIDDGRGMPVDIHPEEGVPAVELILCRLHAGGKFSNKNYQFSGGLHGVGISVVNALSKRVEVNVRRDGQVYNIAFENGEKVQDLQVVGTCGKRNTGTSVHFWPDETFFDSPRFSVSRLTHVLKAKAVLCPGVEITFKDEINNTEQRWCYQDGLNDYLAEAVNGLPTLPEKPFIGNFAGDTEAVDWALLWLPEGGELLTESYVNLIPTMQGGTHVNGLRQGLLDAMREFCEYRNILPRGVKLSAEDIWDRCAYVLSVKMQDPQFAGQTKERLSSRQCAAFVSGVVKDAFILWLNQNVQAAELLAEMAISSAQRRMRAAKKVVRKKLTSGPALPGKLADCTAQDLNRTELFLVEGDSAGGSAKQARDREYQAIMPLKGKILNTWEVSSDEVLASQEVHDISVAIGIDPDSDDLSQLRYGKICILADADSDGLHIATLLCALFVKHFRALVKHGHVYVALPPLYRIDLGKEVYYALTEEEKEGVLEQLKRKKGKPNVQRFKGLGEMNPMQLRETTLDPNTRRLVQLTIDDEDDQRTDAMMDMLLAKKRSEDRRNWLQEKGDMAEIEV
T5 sequence (P0AFI2 whole entry): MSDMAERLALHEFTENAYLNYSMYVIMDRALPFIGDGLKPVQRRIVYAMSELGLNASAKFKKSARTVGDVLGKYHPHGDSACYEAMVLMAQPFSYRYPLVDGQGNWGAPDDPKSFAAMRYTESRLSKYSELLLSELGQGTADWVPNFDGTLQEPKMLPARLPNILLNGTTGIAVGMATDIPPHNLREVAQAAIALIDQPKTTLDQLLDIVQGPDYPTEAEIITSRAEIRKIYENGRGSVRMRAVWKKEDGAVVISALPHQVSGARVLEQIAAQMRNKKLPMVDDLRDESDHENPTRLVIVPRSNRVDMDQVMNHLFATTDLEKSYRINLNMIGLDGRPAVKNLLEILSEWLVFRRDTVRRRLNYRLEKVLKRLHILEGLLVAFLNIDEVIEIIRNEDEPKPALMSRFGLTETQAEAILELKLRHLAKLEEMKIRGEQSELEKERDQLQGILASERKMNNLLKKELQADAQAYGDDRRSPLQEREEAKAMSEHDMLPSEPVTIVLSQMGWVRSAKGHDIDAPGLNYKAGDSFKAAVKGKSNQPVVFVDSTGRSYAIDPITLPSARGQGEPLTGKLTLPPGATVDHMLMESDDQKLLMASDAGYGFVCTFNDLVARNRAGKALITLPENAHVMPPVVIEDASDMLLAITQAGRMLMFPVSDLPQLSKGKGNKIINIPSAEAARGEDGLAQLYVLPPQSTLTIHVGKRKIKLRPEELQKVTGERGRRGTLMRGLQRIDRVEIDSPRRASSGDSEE
T2 sequence (P0C1S7 whole entry): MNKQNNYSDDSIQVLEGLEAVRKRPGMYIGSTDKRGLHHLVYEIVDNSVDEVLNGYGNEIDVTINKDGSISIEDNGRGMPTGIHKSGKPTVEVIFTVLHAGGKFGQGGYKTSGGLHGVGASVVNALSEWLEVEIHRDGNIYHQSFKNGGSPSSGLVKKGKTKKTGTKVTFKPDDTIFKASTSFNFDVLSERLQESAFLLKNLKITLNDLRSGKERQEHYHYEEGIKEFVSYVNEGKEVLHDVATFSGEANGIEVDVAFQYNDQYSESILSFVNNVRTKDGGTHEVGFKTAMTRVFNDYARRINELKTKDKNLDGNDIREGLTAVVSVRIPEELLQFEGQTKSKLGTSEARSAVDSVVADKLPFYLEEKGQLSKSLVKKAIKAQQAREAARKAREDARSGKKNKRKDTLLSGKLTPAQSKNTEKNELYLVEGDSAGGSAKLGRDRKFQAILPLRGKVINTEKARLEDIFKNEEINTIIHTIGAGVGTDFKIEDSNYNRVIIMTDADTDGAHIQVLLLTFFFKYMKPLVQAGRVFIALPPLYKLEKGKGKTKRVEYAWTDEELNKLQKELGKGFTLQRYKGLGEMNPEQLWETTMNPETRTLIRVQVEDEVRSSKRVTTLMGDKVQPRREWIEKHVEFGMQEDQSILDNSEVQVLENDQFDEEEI
T2 sequence (P0C1U9 whole entry): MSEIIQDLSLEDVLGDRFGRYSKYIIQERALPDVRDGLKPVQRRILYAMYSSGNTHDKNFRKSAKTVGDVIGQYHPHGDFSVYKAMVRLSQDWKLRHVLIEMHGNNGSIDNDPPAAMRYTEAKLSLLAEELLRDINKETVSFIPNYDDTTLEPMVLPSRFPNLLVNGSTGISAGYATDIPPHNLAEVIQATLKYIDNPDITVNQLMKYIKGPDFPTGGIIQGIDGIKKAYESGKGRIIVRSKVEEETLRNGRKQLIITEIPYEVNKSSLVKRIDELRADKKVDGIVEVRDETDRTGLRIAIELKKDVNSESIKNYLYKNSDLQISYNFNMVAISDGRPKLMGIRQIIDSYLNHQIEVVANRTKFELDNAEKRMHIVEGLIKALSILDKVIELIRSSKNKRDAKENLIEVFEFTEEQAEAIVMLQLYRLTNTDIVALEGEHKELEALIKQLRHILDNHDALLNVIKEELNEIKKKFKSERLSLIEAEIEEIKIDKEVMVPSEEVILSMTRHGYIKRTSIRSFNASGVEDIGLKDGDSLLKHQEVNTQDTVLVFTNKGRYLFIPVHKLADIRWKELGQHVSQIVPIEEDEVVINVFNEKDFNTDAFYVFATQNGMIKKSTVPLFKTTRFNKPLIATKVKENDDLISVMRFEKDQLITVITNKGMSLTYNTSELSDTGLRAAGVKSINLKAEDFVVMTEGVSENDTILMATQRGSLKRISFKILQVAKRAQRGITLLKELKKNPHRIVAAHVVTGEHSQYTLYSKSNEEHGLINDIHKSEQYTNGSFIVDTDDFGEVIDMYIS
T1 sequence (P0AES4 whole entry): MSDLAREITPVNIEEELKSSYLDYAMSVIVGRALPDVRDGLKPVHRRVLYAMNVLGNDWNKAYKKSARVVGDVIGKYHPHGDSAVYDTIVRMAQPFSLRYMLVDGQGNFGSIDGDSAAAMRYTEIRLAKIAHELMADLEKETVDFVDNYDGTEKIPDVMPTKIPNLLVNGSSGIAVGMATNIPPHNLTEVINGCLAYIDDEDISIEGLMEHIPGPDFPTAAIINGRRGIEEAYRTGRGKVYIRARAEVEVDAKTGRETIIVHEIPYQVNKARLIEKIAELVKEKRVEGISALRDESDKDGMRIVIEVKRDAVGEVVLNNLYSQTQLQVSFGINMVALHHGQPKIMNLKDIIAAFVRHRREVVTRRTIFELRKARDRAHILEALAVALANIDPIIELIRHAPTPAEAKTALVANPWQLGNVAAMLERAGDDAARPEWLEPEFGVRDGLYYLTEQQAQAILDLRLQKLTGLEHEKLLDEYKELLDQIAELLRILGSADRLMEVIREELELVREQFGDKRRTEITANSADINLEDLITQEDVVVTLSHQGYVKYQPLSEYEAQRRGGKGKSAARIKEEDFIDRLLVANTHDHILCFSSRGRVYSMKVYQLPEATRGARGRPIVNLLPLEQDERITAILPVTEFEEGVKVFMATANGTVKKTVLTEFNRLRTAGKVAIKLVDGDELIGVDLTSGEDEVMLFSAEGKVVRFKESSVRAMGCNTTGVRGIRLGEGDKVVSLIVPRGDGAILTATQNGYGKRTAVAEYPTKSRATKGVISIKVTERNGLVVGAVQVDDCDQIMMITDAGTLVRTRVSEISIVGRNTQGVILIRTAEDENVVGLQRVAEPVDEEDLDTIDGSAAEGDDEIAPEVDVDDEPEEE

Compound | MIC range [1] [µg/mL] | MIC50 [1] [µg/mL] | MIC90 [1] [µg/mL] | MIC (S. aureus ATCC 29213) [µg/mL] | MIC50 [2] [µg/mL] | MIC90 [2] [µg/mL] | MIC [2] [µg/mL] | MIC50 [3] [µg/mL] | MIC90 [3] [µg/mL] | MIC [3] [µg/mL] | MIC (N. gonorrhoeae WHO K) [µg/mL] | MIC (N. gonorrhoeae WHO N) [µg/mL] | MIC [4] [µg/mL] | MIC (N. gonorrhoeae WHO L) [µg/mL] | MIC [5] [µg/mL] | pIC50 [6, 9] | pIC50 [6, 10] | MIC [7] [µg/mL] | MIC (S. pneumoniae ATCC 49619) [µg/mL] | MIC (P. aeruginosa ATCC 27853) [µg/mL] | also measured
COc1cnc2ncc(=O)n([C@H]3CC[C@H](NCc4cc5c(=O)oc6ccc(F)cc6c5[nH]4)CC3)c2c1 [Compound 5, 8-Fluoro-2-({[trans-4-(7-methoxy-2-oxopyrido[2,3-b]pyrazin-1(2H)-yl)cyclohexyl]amino}methyl)[1]benzopyrano[4,3-b]pyrrol-4(1H)-one hydrochloride] | 0.016 to 0.25 | 0.12 | 0.25 | 0.5 | 0.5 | 2 | 0.25 to 4 | 1 | 4 | 0.25 to 8 | 0.25 | 0.12 | ≤ 0.06 | 0.25 | 0.125 | 7.10 | 7.22 | 8 | 0.5 | 4 | pIC50 (E. coli DNA gyrase; average of two replicate experiments, read-out: IC50 E. coli Gyrase Supercoiling (average)): 7.00; pIC50 (E. coli DNA gyrase; replicate Assay 1, read-out: IC50 E. coli gyrase Supercoiling, Assay 1): 7.05; pIC50 (E. coli DNA gyrase; replicate Assay 2, read-out: IC50 E. coli gyrase Supercoiling, Assay 2): 7.00; pIC50 ([6]; average of two replicate experiments, read-out: IC50 S. aureus Topoisomerase IV decatenation (average)): 7.15; MIC (H. influenzae ATCC 49766): 0.12 µg/mL; MIC (E. faecalis ATCC 29212): 0.25 µg/mL; MIC (S. aureus BAA-1720): 1 µg/mL; MIC (E. coli ATCC 25922): 0.5 µg/mL; MIC (E. coli TolC- mutant): ≤ 0.016 µg/mL; MIC [8]: ≤ 0.016 µg/mL; pIC50 (Human Topoisomerase II; [11]): 5.04 and 5.05; pIC50 (Human Topoisomerase II; [12]): 5.26; pIC50 (Human Topoisomerase II; [13]): 4.89; pIC50 (S. aureus DNA gyrase; [14]): 6.77; pIC50 (S. aureus DNA gyrase; [15]): 6.80; pIC50 (S. aureus DNA gyrase; [16]): 6.77; pIC50 (E. coli Topoisomerase IV; average of two replicate experiments, read-out: IC50 E. coli Topoisomerase IV decatenation (average)): 6.85; pIC50 (E. coli Topoisomerase IV; replicate Assay 1, read-out: IC50 E. coli Topoisomerase IV decatenation, Assay 1): 6.92; pIC50 (E. coli Topoisomerase IV; replicate Assay 2, read-out: IC50 E. coli Topoisomerase IV decatenation, Assay 2): 6.80
Cl.O=c1oc2ccc(F)cc2c2[nH]c(CN[C@H]3CC[C@H](n4c(=O)ccc5ccc(F)cc54)CC3)cc12 [Compound 6, 8-fluoro-2-({[trans-4-(7-fluoro-2-oxoquinolin-1(2H)-yl)cyclohexyl]amino}methyl)[1]benzopyrano[4,3-b]pyrrol-4(1H)-one hydrochloride] | 0.008 to 0.06 | 0.03 | 0.06 | ≤ 0.06 | 0.12 | 0.12 | 0.06 to 0.12 | 0.25 | 0.25 | 0.06 to 1 | 0.06 | 0.03 | 0.03 | 0.03 | 0.03 | 6.51 | 6.59 | 8 | 0.12 | 4 | pIC50 (E. coli DNA gyrase; IC50 E. coli Gyrase Supercoiling (average), average of two replicate experiments): 6.89; pIC50 (E. coli DNA gyrase; IC50 E. coli gyrase Supercoiling, Assay 1, replicate Assay 1): 6.89; pIC50 (E. coli DNA gyrase; IC50 E. coli gyrase Supercoiling, Assay 2, replicate Assay 2): 6.92; MIC fold lower than that of ciprofloxacin (S. aureus ATCC 29213; S. aureus ATCC 29213): approximately 10 fold; pIC50 [6]: 6.54; MIC (H. influenzae ATCC 49766): 0.5 µg/mL; MIC (E. faecalis ATCC 29212): 0.25 µg/mL; MIC (S. aureus BAA-1720): ≤ 0.06 µg/mL; MIC (E. coli ATCC 25922): 0.25 µg/mL; MIC (E. coli TolC- mutant): ≤ 0.016 µg/mL; pIC50 (Human Topoisomerase II; [11]): 4.99 and 5.00; pIC50 (Human Topoisomerase II; [12]): 4.89; pIC50 (Human Topoisomerase II; [13]): 5.14; pIC50 (S. aureus DNA gyrase; [14]): 6.51; pIC50 (S. aureus DNA gyrase; [15]): 6.57; pIC50 (S. aureus DNA gyrase; [16]): 6.46; pIC50 (E. coli Topoisomerase IV; IC50 E. coli Topoisomerase IV decatenation (average), average of two replicate experiments): 6.60; pIC50 (E. coli Topoisomerase IV; IC50 E. coli Topoisomerase IV decatenation, Assay 1, replicate Assay 1): 6.57; pIC50 (E. coli Topoisomerase IV; IC50 E. coli Topoisomerase IV decatenation, Assay 2, replicate Assay 2): 6.66
